{
  "source": "patent US20160346249A1",
  "about": "(priority 2012, published 2016)",
  "key": {"[1]": {"molecular_target": "CYP2C19 (Homo sapiens, UniProt P33261)", "sequence (P33261 whole entry)": "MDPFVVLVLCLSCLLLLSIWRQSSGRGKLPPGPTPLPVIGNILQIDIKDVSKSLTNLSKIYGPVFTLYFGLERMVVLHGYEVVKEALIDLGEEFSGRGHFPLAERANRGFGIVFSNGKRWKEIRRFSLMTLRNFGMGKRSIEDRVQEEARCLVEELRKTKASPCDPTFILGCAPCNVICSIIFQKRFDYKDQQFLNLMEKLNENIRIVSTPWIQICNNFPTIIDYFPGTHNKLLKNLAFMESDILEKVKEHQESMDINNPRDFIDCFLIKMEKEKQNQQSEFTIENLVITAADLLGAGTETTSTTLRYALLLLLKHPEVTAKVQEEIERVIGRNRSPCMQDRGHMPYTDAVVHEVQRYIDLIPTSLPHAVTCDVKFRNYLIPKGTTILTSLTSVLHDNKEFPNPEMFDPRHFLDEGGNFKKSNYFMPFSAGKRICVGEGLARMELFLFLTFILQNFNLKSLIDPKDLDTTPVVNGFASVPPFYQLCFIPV", "experiment": "Inhibition of human CYP activity in microsomes: (S)-mephenytoin 4′-hydroxylation", "conditions": "read-out: IC50, CYP2C19 (S)-Mephenytoin 4′-hydroxylation; pooled human liver microsomes; 10 to 30 min at 37° C."}, "[2]": {"test_system": "FMO, rat liver microsome (RLM)", "experiment": "FMO dependent metabolism (pre-incubation temperature), rat liver microsomes", "conditions": "for formation from benzydamine 200 μM, AUC ratio to internal standard (mean ± SD): RLM, positive control", "protocol": "(§1) The microsomal incubation mixtures (ca. 0.2 mL) were prepared in triplicate in 0.1M potassium phosphate buffer (pH 7.4) containing 0.25 mg/mL microsomal protein (RLM and HLM), 1 mM EDTA, 4 mM MgCl2, and […]. Incubation mixtures were pre-incubated aerobically in a shaking water bath at 37° C. and 45° C. respectively for ca. 5 minutes. The reaction was initiated by the addition of NADPH (final concentration of 1 mM). […] For the positive controls, benzydamine (Sigma-Aldrich, St. Louis, Mo.) (final concentration 200 μM) was used in the incubation mixture. For the negative controls, water was used in the incubation mixtures instead of microsome protein. The mixtures were kept at ca. −20° C. before analysis by LC-MS/MS.\n(§2) The incubation of benzydamine (positive control, 200 μM) was carried out concurrently and the formation of benzydamine N-oxide was monitored by LC-MS/MS."}, "[3]": {"experiment": "NADPH dependent metabolism, rat liver microsomes", "type": "in vitro ADME", "conditions": "RLM", "protocol": "(§3) Bicifadine (10 μM) was used as the positive control and the formation of the lactam metabolites of bicifadine (M-12) was monitored."}, "[4]": {"experiment": "NADPH dependent metabolism, human liver microsomes", "type": "in vitro ADME", "conditions": "HLM", "protocol": "as §3"}, "[5]": {"experiment": "In vitro metabolism in human hepatocytes", "conditions": "100 μM", "protocol": "Cryopreserved human hepatocytes (male) that are prepared by XenoTech, LLC (Lenexa, Kans.), are thawed on the day of use and resuspended in Waymouth's incubation media. The enzymatic activity of hepatocytes is monitored using 7-ethoxycoumarin and 7-hydroxycoumarin as substrates. […] The incubations are carried out for 4 hours with 1×10^6 viable cells/ml. […] At 0 and 4 hour, cell suspensions are extracted using two volumes of ice cold methanol. After centrifugation, the extracts are stored at −20° C. until further sample processing. The solvent in the samples are dried under a stream of nitrogen, and resuspended in methanol:water (1:1) before analysis.\nThe extracts of the 4 hour incubation mixture are analyzed by liquid chromatography/electrospray ionization-mass spectrometry (LC/ESI-MS) in the positive and negative ion modes to screen for possible metabolites. HPLC Methods 1 and 2 are used to find potential metabolites, and the HPLC and mass spectrometry systems are described in Table 56. The same instrumentation and methods in HPLC Method 1 are used in HPLC Method 2 with the exception that the mobile phases and gradient are changed to 0.4% HCOOH in H2O for mobile A and CH3OH for mobile phase B. The mass spectrometer is LCQ™ Ion Trap Mass Spectrometer and is in either the positive or negative electrospray mode with the ion spray set at 4.5 kV. The capillary temperature is 250° C., the nitrogen sheath gas flow rate is ˜80 unit, the auxiliary nitrogen gas flow rate is 20 unit, and the collision gas is helium."}, "[6]": {"conditions": "eight weeks of treatment; cited from earlier work"}, "[7]": {"test_system": "FMO, human liver microsome (HLM)", "experiment": "FMO dependent metabolism (pre-incubation temperature), human liver microsomes", "conditions": "HLM, positive control", "protocol": "as §1, §2"}, "[8]": {"conditions": "human, in vivo; cited from earlier work"}},
  "data": [
    {"smiles": "CC[C@@]1(c2ccccc2)C(=O)NC(=O)N(Cc2ccccc2)C1=O", "note": "[(R)-N-3-benzyl-Phenobarb-ital]", "values": [
      {"measurement": "IC50", "setting": "[1]", "result": 300, "unit": "nM"}
    ]},
    {"smiles": "O=C1NC[C@H]2C[C@@]12c1ccc(Cl)c(Cl)c1", "note": "[EB-10101 isomer, (1S,5R)-5-(3,4-dichlorophenyl)-3-azabicyclo[3.1.0]hexan-4-one]", "values": [
      {"measurement": "amount formed with 37° C. vs 45° C. pre-treatment", "setting": "[2]; rat, 30 min, 10 μM, pH 7.4", "result": 7.3, "unit": "fold"},
      {"measurement": "area ratio isomer vs EB-10101", "setting": "[3]", "result": "~140", "unit": "fold"},
      {"measurement": "area ratio isomer vs EB-10101", "setting": "[4]", "result": "ca. 25 fold"}
    ]},
    {"smiles": "CCOc1ccc2ccc(=O)oc2c1", "note": "[7-ethoxycoumarin, reference compound]", "values": [
      {"measurement": "metabolized after 4 hours incubation", "setting": "[5]; male, human, hepatocytes, 4 h", "result": 68.9, "unit": "%"}
    ]},
    {"smiles": "N[C@@H]1CC[C@@H](c2ccc(Cl)c(Cl)c2)c2ccccc21", "note": "[SEP-289]", "values": [
      {"measurement": "primary efficacy endpoint vs placebo (17-item HAM-D)", "setting": "[6]", "result": "did not meet the primary efficacy endpoint compared to placebo"}
    ]},
    {"smiles": "O=c1ccc2ccc(O)cc2o1", "note": "[7-hydroxycoumarin, reference compound]", "values": [
      {"measurement": "metabolized after 4 hours incubation", "setting": "[5]; activity control substrate", "result": 99.1, "unit": "%"}
    ]},
    {"smiles": "C[N+](C)([O-])CCCOc1nn(Cc2ccccc2)c2ccccc12", "note": "[Benzydamine N-oxide, benzydamine N-oxide]", "values": [
      {"measurement": "formation from benzydamine 200 μM, AUC ratio to internal standard (mean ± SD)", "setting": "[2]; pre-treatment 37° C.", "result": "75.35 ± 0.75"},
      {"measurement": "formation from benzydamine 200 μM, AUC ratio to internal standard (mean ± SD)", "setting": "[2]; pre-treatment 45° C.", "result": "15.86 ± 1.31"},
      {"measurement": "formation from benzydamine 200 μM, AUC ratio to internal standard (mean ± SD)", "setting": "[7]; pre-treatment 37° C.", "result": "35.70 ± 0.86"},
      {"measurement": "formation from benzydamine 200 μM, AUC ratio to internal standard (mean ± SD)", "setting": "[7]; pre-treatment 45° C.", "result": "7.68 ± 1.51"}
    ]},
    {"smiles": "COC[C@@H]1[C@@H](c2ccc(Cl)c(Cl)c2)C[C@@H]2CC[C@H]1N2", "note": "[GSK372475]", "values": [
      {"measurement": "benefit in comparison to placebo", "setting": "[8]", "result": "failed to demonstrate a significant benefit in comparison to placebo"}
    ]}
  ]
}
